Experimental data taken from ChEMBL document CHEMBL3621041, “Optimization of a Novel Binding Motif to (E)-3-(3,5-Difluoro-4-((1R,3R)-2-(2-fluoro-2-methylpropyl)-3-methyl-2,3,4,9-tetrahydro-1H-pyrido[3,4-b]indol-1-yl)phenyl)acrylic Acid (AZD9496), a Potent and Orally Bioavailable Selective Estrogen Receptor Downregulator and Antagonist” (J Med Chem, 2015).
pIC50: −log10 of the molar value. Values after ≈ are worked out from the molar mass of the structure shown. Active and inactive are the calls of the source. The calls are words filed in the database; no cut-off is given here.

Experiments:
[1] = Oral bioavailability in Alderley Park beagle dog at 5 umol/kg; type: ADME, organism-based, Canis lupus familiaris; details: in vivo
Progesterone receptor = molecular target: T1, Progesterone receptor (Homo sapiens, UniProt P06401); experiment: Agonist activity at progesterone receptor in human MCF7 cells; type: cell-based
T1 sequence (P06401 whole entry): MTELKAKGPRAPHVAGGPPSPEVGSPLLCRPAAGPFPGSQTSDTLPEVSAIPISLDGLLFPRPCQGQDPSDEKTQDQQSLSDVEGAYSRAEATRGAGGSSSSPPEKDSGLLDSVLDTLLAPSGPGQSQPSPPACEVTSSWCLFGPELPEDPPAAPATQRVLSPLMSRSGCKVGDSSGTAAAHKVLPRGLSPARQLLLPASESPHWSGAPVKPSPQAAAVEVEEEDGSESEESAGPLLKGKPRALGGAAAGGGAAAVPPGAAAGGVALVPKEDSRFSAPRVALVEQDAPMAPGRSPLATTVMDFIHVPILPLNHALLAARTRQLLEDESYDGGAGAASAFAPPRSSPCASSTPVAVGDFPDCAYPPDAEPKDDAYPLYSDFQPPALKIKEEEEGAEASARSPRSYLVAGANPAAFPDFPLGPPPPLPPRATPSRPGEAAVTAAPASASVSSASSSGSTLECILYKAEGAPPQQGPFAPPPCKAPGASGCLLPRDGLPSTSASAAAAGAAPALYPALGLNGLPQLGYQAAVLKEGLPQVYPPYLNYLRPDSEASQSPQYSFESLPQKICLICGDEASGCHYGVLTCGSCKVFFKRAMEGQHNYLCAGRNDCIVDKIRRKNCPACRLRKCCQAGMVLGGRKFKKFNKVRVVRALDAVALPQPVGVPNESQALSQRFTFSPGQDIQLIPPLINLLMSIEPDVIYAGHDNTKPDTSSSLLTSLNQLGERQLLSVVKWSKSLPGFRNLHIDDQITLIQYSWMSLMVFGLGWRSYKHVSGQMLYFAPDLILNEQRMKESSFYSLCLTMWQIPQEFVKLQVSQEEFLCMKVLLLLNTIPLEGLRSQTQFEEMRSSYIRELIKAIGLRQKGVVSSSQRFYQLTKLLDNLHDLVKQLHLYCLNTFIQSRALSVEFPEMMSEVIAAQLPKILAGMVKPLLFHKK

[2] = Oral bioavailability in CD1 mouse at 13 umol/kg; type: ADME, organism-based; details: in vivo
[3] = Volume of distribution at steady state in CD1 mouse at 5 umol/kg, iv and 13 umol/kg, po; type: ADME, organism-based; details: in vivo, read-out: Vdss
[4] = Clearance in Han Wistar rat at 5 umol/kg, iv and 13 umol/kg, po; type: ADME, organism-based; details: in vivo
[5] = Fraction unbound in Han Wistar rat 10% plasma by equilibrium dialysis; type: ADME, cell-free
[6] = Intrinsic clearance in rat cryopreserved hepatocytes assessed per 10^6 cells; type: ADME, cell-based, Hepatocyte; details: read-out: CLH
Estrogen receptor [7] = molecular target: T2, Estrogen receptor (Homo sapiens, UniProt P03372)
T2 sequence (P03372 whole entry): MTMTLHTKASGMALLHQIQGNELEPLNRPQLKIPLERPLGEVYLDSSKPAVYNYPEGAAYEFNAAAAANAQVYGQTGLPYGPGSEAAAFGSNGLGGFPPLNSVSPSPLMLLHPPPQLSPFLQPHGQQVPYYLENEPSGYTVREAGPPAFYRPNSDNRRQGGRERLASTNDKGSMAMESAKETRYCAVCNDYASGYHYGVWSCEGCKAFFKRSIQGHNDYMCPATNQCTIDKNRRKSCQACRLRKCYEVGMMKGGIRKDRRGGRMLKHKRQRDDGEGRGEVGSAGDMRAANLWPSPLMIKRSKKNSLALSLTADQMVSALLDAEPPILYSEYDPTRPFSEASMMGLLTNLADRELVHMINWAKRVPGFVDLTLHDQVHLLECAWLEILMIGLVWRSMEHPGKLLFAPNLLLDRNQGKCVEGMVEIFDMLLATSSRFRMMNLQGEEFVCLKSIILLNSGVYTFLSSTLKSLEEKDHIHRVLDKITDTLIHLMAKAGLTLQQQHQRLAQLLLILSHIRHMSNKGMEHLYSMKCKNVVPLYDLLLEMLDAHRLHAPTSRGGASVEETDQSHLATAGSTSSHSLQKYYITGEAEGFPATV
Description: Antagonist activity at ERalpha receptor in human MCF7 cells

[8] = Thermodynamic solubility of the compound in 0.1 M phosphate buffer at pH 7.4 after 24 hrs; type: physicochemical; details: read-out: Therm_solubility
[9] = Intrinsic clearance in human cryopreserved hepatocytes assessed per 10^6 cells; type: ADME, cell-based, Hepatocyte; details: read-out: CLH
MCF7 [10] = experiment: cells; details: Homo sapiens, MCF7, read-out: pIC50 (converted)
Description: Antiproliferative activity against human MCF7 cells

[11] = Volume of distribution at steady state in Alderley Park beagle dog at 2.5 umol/kg, iv and 5 umol/kg, po; type: ADME, organism-based, Canis lupus familiaris; details: in vivo, read-out: Vdss
[12] = Fraction unbound in human 10% plasma by equilibrium dialysis; type: ADME, cell-free
[13] = Volume of distribution at steady state in Han Wistar rat at 5 umol/kg, iv and 13 umol/kg, po; type: ADME, organism-based; details: in vivo, read-out: Vdss
[14] = Clearance in CD1 mouse at 5 umol/kg, iv and 13 umol/kg, po; type: ADME, organism-based; details: in vivo
[15] = Clearance in Alderley Park beagle dog at 2.5 umol/kg, iv and 5 umol/kg, po; type: ADME, organism-based, Canis lupus familiaris; details: in vivo
[16] = Lipophilicity, log D of the compound at pH 7.4; type: physicochemical; details: buffer
[17] = Oral bioavailability in Han Wistar rat at 13 umol/kg; type: ADME, organism-based; details: in vivo
Estrogen receptor [18] = molecular target: T2, Estrogen receptor; remark: listed apart in the source
Description: Binding affinity to ERalpha receptor (unknown origin)

MCF7 [19] = experiment: Antitumor activity against human MCF7 cells xenografted in mouse assessed as tumor regression at 5 mg/kg, po qd; type: functional, organism-based
[20] = Oral bioavailability in Han Wistar rat at 4.5 umol/kg; type: ADME, organism-based; details: in vivo
[21] = Oral bioavailability in SCID mouse at 5.6 umol/kg; type: ADME, organism-based; details: in vivo
[22] = Volume of distribution at steady state in Han Wistar rat at 2.2 umol/kg, iv and 4.5 umol/kg, po; type: ADME, organism-based; details: in vivo, read-out: Vdss
Androgen receptor = molecular target: T3, Androgen receptor (Homo sapiens, UniProt P10275); experiment: Binding affinity to androgen receptor (unknown origin); details: read-out: IC50
T3 sequence (P10275 whole entry): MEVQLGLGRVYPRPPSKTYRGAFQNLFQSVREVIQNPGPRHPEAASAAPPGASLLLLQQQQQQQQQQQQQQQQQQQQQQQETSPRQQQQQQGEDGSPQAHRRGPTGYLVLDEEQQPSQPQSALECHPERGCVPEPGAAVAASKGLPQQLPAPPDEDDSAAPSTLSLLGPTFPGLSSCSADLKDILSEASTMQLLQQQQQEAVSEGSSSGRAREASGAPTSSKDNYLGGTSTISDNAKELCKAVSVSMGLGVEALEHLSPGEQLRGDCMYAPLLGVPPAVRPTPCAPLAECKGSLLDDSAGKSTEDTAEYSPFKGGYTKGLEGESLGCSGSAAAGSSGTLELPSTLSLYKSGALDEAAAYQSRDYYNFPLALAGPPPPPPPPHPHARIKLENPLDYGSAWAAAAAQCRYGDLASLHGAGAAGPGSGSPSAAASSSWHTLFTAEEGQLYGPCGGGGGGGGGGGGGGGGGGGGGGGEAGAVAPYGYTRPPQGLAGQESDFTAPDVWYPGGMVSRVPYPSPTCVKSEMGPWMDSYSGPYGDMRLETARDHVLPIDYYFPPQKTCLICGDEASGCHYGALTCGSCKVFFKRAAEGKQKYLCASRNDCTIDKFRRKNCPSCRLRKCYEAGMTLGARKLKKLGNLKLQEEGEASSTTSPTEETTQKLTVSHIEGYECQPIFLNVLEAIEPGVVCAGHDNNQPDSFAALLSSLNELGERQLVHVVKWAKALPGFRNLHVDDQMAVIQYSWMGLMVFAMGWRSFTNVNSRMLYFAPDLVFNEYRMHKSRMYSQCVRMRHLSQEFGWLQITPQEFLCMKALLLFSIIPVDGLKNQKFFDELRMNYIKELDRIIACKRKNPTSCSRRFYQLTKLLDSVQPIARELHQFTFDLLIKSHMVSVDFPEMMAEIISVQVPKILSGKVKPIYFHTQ

[23] = Clearance in Han Wistar rat at 2.2 umol/kg, iv and […] umol/kg, po; type: ADME, organism-based; details: in vivo
MCF7 [24] = experiment: Antitumor activity against human MCF7 cells xenografted in mouse assessed as tumor growth inhibition administered orally daily once; type: functional
[25] = Volume of distribution at steady state in SCID mouse at 2.3 umol/kg, iv and 5.6 umol/kg, po; type: ADME, organism-based; details: in vivo, read-out: Vdss
[26] = Clearance in SCID mouse at 2.3 umol/kg, iv and 5.6 umol/kg, po; type: ADME, organism-based; details: in vivo
Glucocorticoid receptor = molecular target: T4, Glucocorticoid receptor (Homo sapiens, UniProt P04150); experiment: Binding affinity to glucocorticoid receptor (unknown origin); details: read-out: IC50
T4 sequence (P04150 whole entry): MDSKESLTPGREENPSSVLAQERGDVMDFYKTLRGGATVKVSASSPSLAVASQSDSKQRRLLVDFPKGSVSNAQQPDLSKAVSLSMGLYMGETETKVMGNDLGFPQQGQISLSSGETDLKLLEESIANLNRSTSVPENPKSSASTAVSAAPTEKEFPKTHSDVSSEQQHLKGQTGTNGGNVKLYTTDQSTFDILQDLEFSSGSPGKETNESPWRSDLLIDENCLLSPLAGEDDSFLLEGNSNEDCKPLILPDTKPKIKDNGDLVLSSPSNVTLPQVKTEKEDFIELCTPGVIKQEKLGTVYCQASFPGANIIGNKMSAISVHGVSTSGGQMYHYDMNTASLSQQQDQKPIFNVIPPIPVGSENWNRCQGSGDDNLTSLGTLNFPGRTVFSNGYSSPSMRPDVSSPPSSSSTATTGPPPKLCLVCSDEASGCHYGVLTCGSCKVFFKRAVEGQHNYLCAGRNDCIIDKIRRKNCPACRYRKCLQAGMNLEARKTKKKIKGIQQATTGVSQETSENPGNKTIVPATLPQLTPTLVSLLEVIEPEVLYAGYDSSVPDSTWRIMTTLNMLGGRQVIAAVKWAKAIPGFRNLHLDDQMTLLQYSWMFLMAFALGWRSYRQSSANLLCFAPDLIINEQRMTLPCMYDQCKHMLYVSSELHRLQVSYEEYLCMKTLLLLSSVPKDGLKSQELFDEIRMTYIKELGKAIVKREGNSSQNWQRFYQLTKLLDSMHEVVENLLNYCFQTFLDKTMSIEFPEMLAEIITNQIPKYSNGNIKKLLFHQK

bioavailability [1]	fraction unbound [5]	hepatocyte CLint [6]	solubility thermodynamic at 24 h [8]	hepatocyte CLint [9]	IC50 (MCF7 [10])	Vd [11]	fraction unbound [12]	clearance [15]	logD [16]	Compound	also measured
111%	0.0069	18 µL/min/1e6 cells	> 1000 µM	40 µL/min/1e6 cells	0.776 nM	0.3 L/kg	0.0051	0.96 mL/min/kg	2.6	CC(C)CN1[C@H](c2ccc(/C=C/C(=O)O)cc2)c2[nH]c3ccccc3c2C[C@H]1C	pIC50 (Progesterone receptor): < 4.00; bioavailability [2]: 86%; Vd [3]: 3.7 L/kg; clearance [4]: 6.2 mL/min/kg; pIC50 (Estrogen receptor [7]): 8.68; Vd [13]: 1.1 L/kg; clearance [14]: 21 mL/min/kg; bioavailability [17]: 80%; pIC50 (Estrogen receptor [18]): 8.19
79%	0.0037	4.2 µL/min/1e6 cells	110 µM (≈ 48.7 µg/mL)	32 µL/min/1e6 cells	0.0398 nM	2.2 L/kg	0.0026	0.28 mL/min/kg	2.8	C[C@@H]1Cc2c([nH]c3ccccc23)[C@@H](c2c(F)cc(/C=C/C(=O)O)cc2F)N1CC(C)(C)F [AZD-9496]	Activity (MCF7 [19]): Active; bioavailability [20]: 63%; bioavailability [21]: 128%; Vd [22]: 0.43 L/kg; pIC50 (Androgen receptor): 4.52; clearance [23]: 1 mL/min/kg; growth inhibition (GI) (MCF7 [24]): Dose-dependent effect; Vd [25]: 2.2 L/kg; clearance [26]: 43 mL/min/kg; pIC50 (Glucocorticoid receptor): 5.04
